Results: patent US20260183411A1, “TARGETING SORTILIN” (priority 2024, published 2026)
Like-named read-outs stand apart in the source and are kept apart here.

Experiment: Murine serum stability assay
Type: in vitro ADME, mouse
Settings: read-out: Murine serum stability assay, T1/2
Experimental: Serum was drawn from male CD-1 mice by Pharmidex. Lyophilized peptides were solubilized in DMSO and then further diluted into male mouse (CD-1) serum at 37° C. in duplicates. The reaction was incubated at 37° C. and samples extracted at 6 time points: 0, 0.16, 0.5, 1, 3, and 6 hrs. Acetonitrile (ACN) with an internal standard (tolbutamide) was added to stop the incubation. Samples were centrifuged, and the supernatant was analyzed by HPLC-MS/MS for the parent compound.

[1] = male, CD-1, mouse, mouse serum, linear peptides, Table 11
[2] = mouse, serum, linear peptides, Table 11

With `CC(C)CC[C@H](NC(=O)[C@H](CCC(N)=O)NC(=O)[C@H](CCCNC(=N)N)NC(=O)[C@H](CC(C)C)NC(=O)[C@H](C)NC(=O)[C@@H]1CCCN1C(=O)[C@H](CC(=O)O)NC(=O)[C@H](CCCNC(=N)N)NC(=O)[C@H](CC(C)C)NC(=O)[C@@H]1CCCN1C(=O)[C@H](C)NC(=O)[C@H](CC(=O)O)NC(=O)[C@H](Cc1c[nH]c2ccccc12)NC(=O)[C@H](CCCNC(=N)N)NC(=O)[C@@H]1CCCN1C(=O)[C@H](C)N)C(=O)N[C@@H](CC(C)(C)C)C(=O)O` [Arb-SAR-P17] the half-life [1] was 12.1 min.
Work on `CC(C)C[C@H](NC(=O)[C@H](C)NC(=O)[C@@H]1CCCN1C(=O)[C@H](CC(=O)O)NC(=O)[C@H](CCCNC(=N)N)NC(=O)[C@H](CC(C)C)NC(=O)[C@@H]1CCCN1C(=O)[C@H](C)NC(=O)[C@H](CC(=O)O)NC(=O)[C@H](Cc1c[nH]c2ccccc12)NC(=O)[C@H](CCCNC(=N)N)NC(=O)[C@@H]1CCCN1C(=O)[C@H](C)N)C(=O)N[C@@H](CCCNC(=N)N)C(=O)N[C@@H](CCC(N)=O)C(=O)N[C@@H](CC(C)(C)C)C(=O)N[C@@H](CC(C)(C)C)C(=O)O` [Arb-SAR-P22] yielded a half-life [2] of 9.95 min.
`CC(C)C[C@H](NC(=O)[C@H](C)NC(=O)[C@@H]1CCCN1C(=O)[C@H](CC(=O)O)NC(=O)[C@H](CCCNC(=N)N)NC(=O)[C@H](CC(C)C)NC(=O)[C@@H]1CCCN1C(=O)[C@H](C)NC(=O)[C@H](CC(=O)O)NC(=O)[C@H](Cc1c[nH]c2ccccc12)NC(=O)[C@H](CCCNC(=N)N)NC(=O)[C@@H]1CCCN1C(=O)[C@H](C)N)C(=O)N[C@@H](CCCNC(=N)N)C(=O)N[C@@H](CCC(N)=O)C(=O)N[C@@H](CC1CCC1)C(=O)N[C@@H](CC(C)(C)C)C(=O)O` [Arb-SAR-P24] showed a half-life [1] of 10.1 min.
For `CC(C)CC[C@H](NC(=O)[C@H](CCC(N)=O)NC(=O)[C@H](CCCNC(=N)N)NC(=O)[C@H](CC(C)C)NC(=O)[C@H](C)NC(=O)[C@@H]1CCCN1C(=O)[C@H](CC(=O)O)NC(=O)[C@H](CCCNC(=N)N)NC(=O)[C@H](CC(C)C)NC(=O)[C@@H]1CCCN1C(=O)[C@H](C)NC(=O)[C@H](CC(=O)O)NC(=O)[C@H](Cc1c[nH]c2ccccc12)NC(=O)[C@H](CCCNC(=N)N)NC(=O)[C@@H]1CCCN1C(=O)[C@H](C)N)C(=O)N[C@@H](CC1CCC1)C(=O)O` [Arb-SAR-Q09], the half-life [2] was 11.5 min.
For `CC(C)C[C@H](NC(=O)[C@H](C)NC(=O)[C@@H]1CCCN1C(=O)[C@H](CC(=O)O)NC(=O)[C@H](CCCNC(=N)N)NC(=O)[C@H](CC(C)C)NC(=O)[C@@H]1CCCN1C(=O)[C@H](C)NC(=O)[C@H](CC(=O)O)NC(=O)[C@H](Cc1c[nH]c2ccccc12)NC(=O)[C@H](CCCNC(=N)N)NC(=O)[C@@H]1CCCN1C(=O)[C@H](C)N)C(=O)N[C@@H](CCCNC(=N)N)C(=O)N[C@@H](CCC(N)=O)C(=O)N[C@H](C(=O)N[C@@H](CC1CCC1)C(=O)O)C(C)(C)C` [Arb-SAR-Q15], the half-life [1] was 16.9 min.
`CCCC[C@@H]1NC(=O)[C@@H](NC(=O)[C@H](CCC(N)=O)NC(=O)[C@H](C)NC(C)=O)CSSC[C@@H](C(=O)N[C@@H](CCCNC(=N)N)C(=O)N[C@@H](CCC(N)=O)C(=O)N[C@H](C(=O)N[C@@H](CC(C)(C)C)C(=O)O)C(C)(C)C)NC(=O)[C@H](C)NC(=O)[C@H](CCCNC(=N)N)NC(=O)[C@H](CC(N)=O)NC(=O)[C@H](CCCNC(=N)N)NC(=O)CNC1=O` [Arb_cyclic_C5] gave a half-life (male, CD-1, mouse, mouse serum, cyclic peptides, Table 12) of 46.1 min.
Work on `CC(=O)N[C@@H](Cc1c[nH]cn1)C(=O)N[C@@H](CC(N)=O)C(=O)N[C@@H](Cc1ccccc1)C(=O)N[C@@H](Cc1ccc(O)cc1)C(=O)N[C@H]1CSSC[C@@H](C(=O)N[C@@H](CCC(N)=O)C(=O)N[C@@H](CCCNC(=N)N)C(=O)N[C@@H](CCC(N)=O)C(=O)N[C@H](C(=O)N[C@@H](CC(C)(C)C)C(=O)O)C(C)(C)C)NC(=O)[C@H](Cc2c[nH]cn2)NC(=O)[C@H](CCCCN)NC(=O)[C@H](CCCNC(=N)N)NC1=O` [Arb_cyclic_C22] yielded a half-life (mouse, serum, cyclic peptides, Table 12) of 58.3 min.
